Reference: EP0450515B1, “Haloethyl-substituted steroidal enzyme inhibitors” (MERRELL DOW PHARMACEUTICALS INC., priority 1990, dated 1991)
pKi: −log10 of the molar value.

Biological target: T1, aromatase (Homo sapiens, UniProt P11511)
T1 construct: aromatase preparation, usually 50-800 »g of microsomal protein per ml of assay buffer; from tissue; host or cells: microsomes
T1 sequence (P11511 1-503): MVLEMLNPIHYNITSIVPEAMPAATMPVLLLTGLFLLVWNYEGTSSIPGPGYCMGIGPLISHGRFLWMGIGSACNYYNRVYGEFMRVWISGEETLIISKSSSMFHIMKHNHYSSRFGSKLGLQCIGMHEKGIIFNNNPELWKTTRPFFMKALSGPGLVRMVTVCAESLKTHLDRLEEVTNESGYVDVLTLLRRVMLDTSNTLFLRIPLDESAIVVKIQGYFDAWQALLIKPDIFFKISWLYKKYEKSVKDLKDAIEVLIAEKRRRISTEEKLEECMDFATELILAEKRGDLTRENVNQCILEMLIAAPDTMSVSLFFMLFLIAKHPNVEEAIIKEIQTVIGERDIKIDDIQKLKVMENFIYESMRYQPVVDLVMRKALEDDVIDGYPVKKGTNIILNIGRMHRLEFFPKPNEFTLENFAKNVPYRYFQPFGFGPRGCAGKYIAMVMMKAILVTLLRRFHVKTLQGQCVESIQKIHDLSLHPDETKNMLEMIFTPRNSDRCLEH
Test: time-dependent aromatase inhibition assay (preincubation of inhibitor with enzyme, Kitz-Wilson analysis)
Format: biochemical
Conditions: for τ50: half-time of inactivation at infinite inhibitor concentration, Kitz-Wilson plots, time-dependent assay; for kinact/KI: ratio of kcat/Ki (inactivation), index of efficiency of enzyme inactivation
Method: In this assay, the inhibitor is preincubated with enzyme prior to assaying for activity in the presence of high substrate levels. A time-related decrease in enzyme activity can be indicative of irreversible binding of the inhibitor with the enzyme.
In the time-dependent assay, an amount of the enzyme inhibitor in 100 »l of the assay buffer described above which will provide assay concentrations which are usually between 1 nM and 10 »M are added to 35 ml centrifuge tubes containing 600 »l of the NADPH generating system. The pre-incubation is started by the addition of 700 »l of aromatase preparation, usually 50-800 »g of microsomal protein per ml of assay buffer. These preparations are mixed using a vortex mixer and incubated for 0, 5, 10, or 20 minutes at 25°C. Then 100 »l of androstenedione (∼6.8 »M) containing 1β-³H androstenedione in assay buffer is added to provide an assay concentration of substrate (0.50 »M) which is at least ten times the Km of androstenedione (0.04 »M). Following vortexing, the enzyme incubation is continued for 10 minutes before being terminated by the addition of chloroform. The amount of radioactivity in the aqueous fraction is determined by scintillation procedures. The enzymatic activity for each concentration of inhibitor at each time period of preincubation is calculated as a percent of the respective vehicle control which is arbitrarily set at 100%. Therefore, the relative present enzyme inhibition is expressed as a percentage: (100 percent minus percent enzyme activity with inhibitor present).
Enzyme kinetic analysis utilized Kitz-Wilson plots for time-dependent assays. These analyses provide estimates of apparent Ki of inactivation which represents the inhibitor concentration required to produce half-maximal rate of enzyme inactivation. The pseudo first-order rate constant for enzyme inactivation (kcat) and the half-time of inactivation (τ₅₀) of infinite inhibitor concentrations were determined.

Structure (SMILES) | pKi | τ50 [min] | kinact/KI [M⁻¹ s⁻¹]
C[C@]12CC[C@H]3[C@@H](CCC4=CC(=O)CC[C@@]43C(O)CI)[C@@H]1CCC2=O (stereo partly drawn) [HOCHCH₂I (R):(S)::9:1, 10-(2-Iodo-1-hydroxyethyl)-estr-4-ene-3,17-dione] | 7.96 | 2.22 | 490000
C[C@]12CC[C@H]3[C@@H](CCC4=CC(=O)CC[C@@]43C(O)CCl)[C@@H]1CCC2=O (stereo partly drawn) [HOCHCH₂Cl (R):(S)::9:1, 10-(2-Chloro-1-hydroxyethyl)-estr-4-ene-3,17-dione] | 7.20 | 3.60 | 50700
C[C@]12CC[C@H]3[C@@H](CCC4=CC(=O)CC[C@@]43C(O)CBr)[C@@H]1CCC2=O (single isomer, unassigned; diastereomer 10) [HOCHCH₂Br pure (R) diastereomer, 10-(2-Bromo-1-hydroxyethyl)-estr-4-ene-3,17-dione] | 7.59 | 4.85 | 
C[C@]12CC[C@H]3[C@@H](CCC4=CC(=O)CC[C@@]43C(O)CBr)[C@@H]1CCC2=O (stereo partly drawn) [HOCHCH₂Br (S):(R)::9:1, 10-(2-Bromo-1-hydroxyethyl)-estr-4-ene-3,17-dione] | 5.95 | 5.33 | 
C[C@]12CC[C@H]3[C@@H](CCC4=CC(=O)CC[C@@]43C(=O)CBr)[C@@H]1CCC2=O [O=CCH₂Br, 10-(2-Bromoacetyl)-estr-4-ene-3,17-dione] | 6.72 | 32.7 | 1860
